Some test systems named below: UO-31 renal; HS 578T breast; 786-0 renal; LOX IMVI melanoma; M14 melanoma; HCC-2998 colon; RXF 393 renal; BT-549 breast; OVCAR-3 ovarian; MALME-3M melanoma; SK-OV-3 ovarian.
What all share (assay): NCI anticancer screen, dose series, 48 h

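Interpolation was linear, between the two tested concentrations surrounding the appropriate level; five concentrations were tested over 48 hours in 96-well plates. TGI: total growth inhibition.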

Consider `Cn1c(=O)c2c(=O)cc(N)[nH]c2n(C)c1=O`, for which the TGI with UO-31 renal, in the assay on HS 578T breast, in the assay with 786-0 renal, in the assay on LOX IMVI melanoma, in the assay with M14 melanoma and with HCC-2998 colon was over 100 µM each time. For the same compound, the TGI with RXF 393 renal, in the assay with BT-549 breast, with OVCAR-3 ovarian, with MALME-3M melanoma and in the assay with SK-OV-3 ovarian was over 100 µM throughout.

On to `O=C(CC(C(=O)c1cccs1)c1ccc2c(c1)OCO2)c1ccccc1` (stereo not given), for which the TGI with UO-31 renal, in the assay on HS 578T breast, in the assay with 786-0 renal, in the assay on LOX IMVI melanoma, in the assay with M14 melanoma and with HCC-2998 colon was over 100 µM throughout. The TGI in the assay on RXF 393 renal, in the assay on BT-549 breast, with OVCAR-3 ovarian, in the assay on MALME-3M melanoma and in the assay with SK-OV-3 ovarian was over 100 µM in each case.

As to `Nc1ccc(C2SCC(=O)N2NS(=O)(=O)c2cccc(C(=O)O)c2)cc1` (stereo not given), the TGI in the assay on UO-31 renal, in the assay with HS 578T breast, in the assay with 786-0 renal, with LOX IMVI melanoma, in the assay on M14 melanoma and in the assay on HCC-2998 colon was over 100 µM throughout. Further, the TGI in the assay with RXF 393 renal was over 100 µM; in the assay with BT-549 breast, over 100 µM; in the assay with OVCAR-3 ovarian, over 100 µM; in the assay on MALME-3M melanoma, 55.7 µM; in the assay on SK-OV-3 ovarian, over 100 µM.

Take `O=C(NC(OCc1ccccc1)(C(F)(F)F)C(F)(F)F)OCc1ccccc1`: the TGI with UO-31 renal worked out at 23.3 µM; in the assay with HS 578T breast, 31.3 µM; in the assay with 786-0 renal, 30.1 µM; with LOX IMVI melanoma, 27.6 µM; in the assay with M14 melanoma, 33 µM; in the assay with HCC-2998 colon, 28.8 µM. The TGI is 25.3 µM with RXF 393 renal; 28.7 µM in the assay on BT-549 breast; 28.6 µM with OVCAR-3 ovarian; 31.9 µM with MALME-3M melanoma; 31.3 µM in the assay on SK-OV-3 ovarian.

In the case of `COc1ccc2nc3cc(Cl)ccc3c(NCCCCCC(=O)NC(COc3ccc4ccc5cccnc5c4n3)COc3ccc4ccc5cccnc5c4n3)c2c1`, the TGI with UO-31 renal was 10.7 µM; with HS 578T breast, 73.9 µM; in the assay with 786-0 renal it was 28.8 µM; in the assay with LOX IMVI melanoma, over 100 µM; with M14 melanoma, 57.7 µM; in the assay with HCC-2998 colon, 28.1 µM. Also, the TGI in the assay on RXF 393 renal is 39.3 µM; in the assay on BT-549 breast, 3.55 µM; in the assay with OVCAR-3 ovarian, over 100 µM; in the assay on MALME-3M melanoma, over 100 µM; in the assay on SK-OV-3 ovarian it was over 100 µM.

In the case of `C=C1CC[C@@H]2[C@](C)(COC(=O)CCC(=O)O)CCC[C@@]2(C)[C@@H]1CCC1=CC(=O)OC1`, the TGI in the assay on UO-31 renal, in the assay on HS 578T breast, with 786-0 renal, in the assay with LOX IMVI melanoma, with M14 melanoma and with HCC-2998 colon was over 100 µM each time. The TGI with RXF 393 renal, in the assay with BT-549 breast, in the assay on OVCAR-3 ovarian, in the assay with MALME-3M melanoma and with SK-OV-3 ovarian was over 100 µM throughout.

Take `CCCCCCCCCCCCCCCC(=O)OC1C(O)C(O)C(O)C(O)C12CO2` (stereo not given): the TGI in the assay on UO-31 renal was over 100 µM; in the assay on HS 578T breast, over 100 µM; with 786-0 renal, 41.9 µM; in the assay with LOX IMVI melanoma, 53.2 µM; in the assay with M14 melanoma it was over 100 µM; in the assay with HCC-2998 colon, over 100 µM. For the same compound, the TGI in the assay on RXF 393 renal is over 100 µM; in the assay on BT-549 breast, over 100 µM; in the assay with OVCAR-3 ovarian, 73 µM; in the assay on MALME-3M melanoma it was over 100 µM; in the assay on SK-OV-3 ovarian, over 100 µM.

Regarding `COCCCNc1c2ccccc2nc2ccccc12`, the TGI in the assay with UO-31 renal was 8.01 µM; in the assay with HS 578T breast, 9.32 µM; in the assay with 786-0 renal, 17.9 µM; with LOX IMVI melanoma, 5.67 µM; in the assay on M14 melanoma, 3.89 µM; with HCC-2998 colon, 4.58 µM. The TGI stood at 14.2 µM in the assay with RXF 393 renal; 53.2 µM with BT-549 breast; 7.55 µM in the assay on OVCAR-3 ovarian; 7.17 µM in the assay with MALME-3M melanoma; 12.4 µM in the assay with SK-OV-3 ovarian.

Take `NS(=O)(=O)c1ccc(NC(=O)c2ccc3nc4ccccc4c(Nc4ccc(S(N)(=O)=O)cc4)c3c2)cc1`: the TGI with UO-31 renal, in the assay with HS 578T breast, in the assay on 786-0 renal, in the assay on LOX IMVI melanoma, with M14 melanoma and with HCC-2998 colon was over 100 µM in each case. In addition, the TGI in the assay with RXF 393 renal, with BT-549 breast, in the assay on OVCAR-3 ovarian, in the assay on MALME-3M melanoma and with SK-OV-3 ovarian was over 100 µM throughout.

For `OCC1OC(n2cnc3c(Cl)nc(Nc4ccc(Cl)c(Cl)c4)nc32)CC1O` (stereo not given), the TGI with UO-31 renal came out at 31.4 µM; in the assay on HS 578T breast it was 32.3 µM; with 786-0 renal, 19.4 µM; in the assay with LOX IMVI melanoma, 16 µM; in the assay with M14 melanoma, 32 µM; in the assay with HCC-2998 colon, 17.1 µM. Moreover, the TGI is 19.5 µM in the assay with RXF 393 renal; 22.3 µM with BT-549 breast; 46.1 µM in the assay with OVCAR-3 ovarian; 21.2 µM in the assay on MALME-3M melanoma; 33.4 µM in the assay on SK-OV-3 ovarian.

With `CCOC(=O)CC1Nc2ccccc2C12CCc1c([nH]c3ccccc13)C2C(=O)OCC` (stereo not given), the TGI with UO-31 renal, with HS 578T breast, with 786-0 renal, in the assay with LOX IMVI melanoma, in the assay on M14 melanoma and with HCC-2998 colon was over 100 µM each time. Also, the TGI with RXF 393 renal was over 100 µM; in the assay on BT-549 breast, over 100 µM; in the assay with OVCAR-3 ovarian, over 100 µM; in the assay on MALME-3M melanoma it was 51.6 µM; in the assay on SK-OV-3 ovarian it was over 100 µM.

As for `CC(C)C(=O)/C=C/c1c(Cl)cccc1Cl`, the TGI in the assay with UO-31 renal is 16 µM; in the assay with HS 578T breast, 9.72 µM; with 786-0 renal, 20.1 µM; in the assay on LOX IMVI melanoma, 7.32 µM; in the assay with M14 melanoma, 6.69 µM; in the assay with HCC-2998 colon it was 29 µM. The TGI in the assay on RXF 393 renal turned out to be 19 µM; in the assay with BT-549 breast, 9.81 µM; with OVCAR-3 ovarian it was 6.56 µM; with MALME-3M melanoma it was 17.9 µM; with SK-OV-3 ovarian, 9.27 µM.

Consider `COC(=O)C1Cc2cc3c(cc2C1)CCC3`, for which the TGI with UO-31 renal, with HS 578T breast, with 786-0 renal, in the assay on LOX IMVI melanoma, in the assay on M14 melanoma and with HCC-2998 colon was over 100 µM in each case. Also, the TGI in the assay with RXF 393 renal, with BT-549 breast, with OVCAR-3 ovarian, in the assay with MALME-3M melanoma and with SK-OV-3 ovarian was over 100 µM each time.

As to `C[C@@H]1CC[C@@]2(C)[C@H](C)/C(=C\COC(=O)/C=C/c3ccc(O)c(O)c3)CC[C@@]12C`, the TGI in the assay with UO-31 renal amounted to 28 µM; in the assay with HS 578T breast, 32.8 µM; in the assay with 786-0 renal it was 17.6 µM; in the assay on LOX IMVI melanoma it was 21.5 µM; in the assay on M14 melanoma it was 26.1 µM; in the assay with HCC-2998 colon it was 20 µM. For the same compound, the TGI in the assay with RXF 393 renal came to 39.1 µM; in the assay with BT-549 breast it was 29 µM; in the assay with OVCAR-3 ovarian, 21.6 µM; in the assay with MALME-3M melanoma, 27.8 µM; with SK-OV-3 ovarian it was 26.4 µM.

As to `COc1ccc(/C=C/C(=O)CCN2CCN(CCC(=O)/C=C/c3ccc(OC)cc3)CC2)cc1`, the TGI in the assay on UO-31 renal was found to be 27.7 µM; with HS 578T breast, 70 µM; with 786-0 renal, 10.9 µM; with LOX IMVI melanoma, 11.1 µM; in the assay with M14 melanoma, 32.5 µM; with HCC-2998 colon, 24.7 µM. For the same compound, the TGI in the assay on RXF 393 renal came out at 17.2 µM; in the assay on BT-549 breast, 39.9 µM; with OVCAR-3 ovarian, 28.8 µM; in the assay with MALME-3M melanoma, 35.9 µM; in the assay with SK-OV-3 ovarian, 24.1 µM.

Source of the values: PubChem BioAssay (NCI).
